Data taken from patent US5235036A, “CRF analogs” (The Salk Institute for Biological Studies, priority 1991, dated 1993).
Entries after “also recorded” stand apart in the source; their conditions may differ. Where two headings read alike, the source gives them in different places. Where a SMILES comes first, the peptide text is derived from it. Where no end group is shown, it is not given here. [ ]: non-standard residue; d: D form.

Columns and labels:
[1] = test system: secretion of ACTH and β-END-LI; test: in vivo testing: stimulation of the secretion of ACTH and β-END-LI; details: test system not stated in the example
Method: (§1) The synthetic peptides [Ala^20 ]-oCRF and [Ala^39 ]-oCRF are examined for their effects on the secretion of ACTH and β-endorphin in vitro and also in vivo. The potency of synthetic oCRF analogs to stimulate the secretion of ACTH and β-endorphin by cultured rat pituitary cells is measured using the procedure as generally set forth in Endocrinology, 91, 562 (1972) and compared against synthetic oCRF. [Ala^20 ]-oCRF is considered to be about 2 to 4 times as potent as the native hormone. […] In vivo testing which can be carried out using the general procedure set forth in C. Rivier et al., Science.

[2] = lowering of blood pressure when injected peripherally; assay type: in vivo; details: e.g. intravenously
[3] = background statement; mammals; cited from earlier work
[4] = test system: ACTH and β-endorphin-like activities (β-END-LI); details: in vitro and in vivo; background statement; cited from earlier work
[5] = test system: cultured rat pituitary cells; test: secretion of ACTH and β-endorphin by cultured rat pituitary cells, compared against synthetic oCRF; assay type: cell-based
Method: as §1

gastric acid production = details: background statement; cited from earlier work

Compound	biopotency / stimulation of the secretion of ACTH and β-END-LI [1]	lowering of blood pressure [2]	lowering of blood pressure [3]	stimulation of ACTH and β-endorphin secretion / β-END-LI [4]	other results
CC[C@H](C)[C@H](NC(=O)[C@@H](NC(=O)[C@H](CCC(=O)O)NC(=O)[C@H](CCSC)NC(=O)[C@H](CC(C)C)NC(=O)[C@H](CCCCN)NC(=O)[C@H](CCCNC(=N)N)NC(=O)[C@H](CC(N)=O)NC(=O)[C@H](CO)NC(=O)[C@H](Cc1c[nH]cn1)NC(=O)[C@H](C)NC(=O)[C@H](CCC(N)=O)NC(=O)[C@H](CCC(N)=O)NC(=O)[C@H](C)NC(=O)[C@H](CC(C)C)NC(=O)[C@H](CCC(N)=O)NC(=O)[C@H](CCC(=O)O)NC(=O)[C@H](C)NC(=O)[C@H](CCCNC(=N)N)NC(=O)[C@H](C)NC(=O)[C@H](CCSC)NC(=O)[C@H](C)NC(=O)[C@H](CC(C)C)NC(=O)[C@@H](NC(=O)[C@H](CCC(=O)O)NC(=O)[C@H](CCCNC(=N)N)NC(=O)[C@H](CC(C)C)NC(=O)[C@H](CC(C)C)NC(=O)[C@H](Cc1c[nH]cn1)NC(=O)[C@@H](Cc1ccccc1)NC(=O)[C@@H](NC(=O)[C@H](CC(C)C)NC(=O)[C@H](CC(=O)O)NC(=O)[C@H](CC(C)C)NC(=O)[C@H](CO)NC(=O)[C@@H](NC(=O)[C@@H]1CCCN1C(=O)[C@@H]1CCCN1C(=O)[C@@H](N)CCC(=O)O)[C@@H](C)CC)[C@@H](C)O)C(C)C)[C@@H](C)CC)C(N)=O [[D-Phe^12, Ala^20]-rCRF(3-41)] (H-EPPISLDLT[dF]HLLREVLAMARAEQLAQQAHSNRKLMEII-NH2)	biopotent	causes significant lowering of blood pressure	–	–	–
SEEPPISLDLTFHLLREVLAMARAEQLAQQAHSNRKLMEII [[Ala^20]-rCRF]	biopotent and stimulates the secretion of ACTH and β-END-LI	causes significant lowering of blood pressure	–	–	–
SEEPPISLDLTFHLLREVLEMARAEQLAQQAHSNRKLMAII [[Ala^39 -rCRF]	biopotent, stimulates the secretion of ACTH and β-END-LI	causes significant lowering of blood pressure	–	–	–
SQEPPISLDLTFHLLREMLEMAKAEQEAEQAALNRLLLEEA [AHC]	–	–	substantially lower blood pressure	stimulate ACTH and β-endorphin-like activities (β-END-LI) in vitro and in vivo	–
SQEPPISLDLTFHLLREVLAMTKADQLAQQAHSNRKLLAIA [[Ala^20,29]-oCRF]	biopotent	lowers blood pressure	–	–	–
SQEPPISLDLTFHLLREVLAMTKADQLAQQAHSNRKLLDIA [[Ala^20]-oCRF]	–	a significant lowering of blood pressure	–	–	–
SQEPPISLDLTFHLLREVLEMTKADQLAQQAHSNRKLLAIA [[Ala^39]-oCRF]	–	a significant lowering of blood pressure	–	–	increase in biopotency in vitro over the native hormone [5]: ~85%
Ser-Gln-Glu-Pro-Pro-Ile-Ser-Leu-Asp-Leu-Thr-Phe-His-Leu-Leu-Arg-Glu-Val-Leu-Glu-Met-Thr-Lys-Ala-Asp-Gln-Leu-Ala-Gln-Gln-Ala-His-Ser-Asn-Arg Lys-Leu-Leu-Asp-Ile-Ala (SQEPPISLDLTFHLLREVLEMTKADQLAQQAHSNRKLLDIA) [oCRF]	–	–	lowers blood pressure in mammals; also recorded: substantially lower blood pressure	stimulates the secretion of ACTH and β-endorphin; also recorded: stimulate ACTH and β-endorphin-like activities (β-END-LI) in vitro and in vivo	gastric acid production (gastric acid production): inhibits gastric acid production
Ser-Glu-Glu-Pro-Pro-Ile-Ser-Leu-Asp-Leu-Thr-Phe-His-Leu-Leu-Arg-Glu-Val-Leu-Glu-Met-Ala-Arg-Ala-Glu-Gln-Leu-Ala-Gln-Gln-Ala-His-Ser-Asn-Arg -Lys-Leu-Met-Glu-Ile-Ile (SEEPPISLDLTFHLLREVLEMARAEQLAQQAHSNRKLMEII) [rCRF]	–	–	substantially lower blood pressure	stimulate ACTH and β-endorphin-like activities (β-END-LI) in vitro and in vivo	–
